Source: patent US20080119515A1, “Heterocyclic Kinase Inhibitors: Methods of Use and Synthesis” (priority 2003, published 2008)

What follows are compounds tested against T1, ZAP-70 (Homo sapiens, UniProt P43403) (assay: DELFIA assay (ZAP-70 kinase, phosphorylation of biotinylated poly(glu,tyr))). Settings: ZAP-70 DELFIA, class symbols; read-out: Activity (IC50 in vitro).
T1 sequence (P43403 1-619): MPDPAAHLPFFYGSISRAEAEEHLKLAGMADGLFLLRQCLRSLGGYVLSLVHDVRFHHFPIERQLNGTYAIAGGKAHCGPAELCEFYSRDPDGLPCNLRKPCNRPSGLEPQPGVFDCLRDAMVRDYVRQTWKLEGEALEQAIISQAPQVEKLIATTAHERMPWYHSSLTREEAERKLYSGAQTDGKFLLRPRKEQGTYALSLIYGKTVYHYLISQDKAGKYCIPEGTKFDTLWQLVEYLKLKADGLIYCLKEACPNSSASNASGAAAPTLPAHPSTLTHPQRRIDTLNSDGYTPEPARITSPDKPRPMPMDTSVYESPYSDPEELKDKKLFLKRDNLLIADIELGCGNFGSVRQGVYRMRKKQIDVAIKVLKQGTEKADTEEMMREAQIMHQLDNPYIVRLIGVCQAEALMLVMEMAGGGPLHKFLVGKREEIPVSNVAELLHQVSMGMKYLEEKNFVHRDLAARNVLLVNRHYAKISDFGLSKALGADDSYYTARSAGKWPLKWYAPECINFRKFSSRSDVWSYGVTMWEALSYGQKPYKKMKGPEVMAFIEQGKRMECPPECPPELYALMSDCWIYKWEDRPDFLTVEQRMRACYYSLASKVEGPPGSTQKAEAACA
Assay type: biochemical
Method in brief: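 3.1 nM ZAP-70 pre-incubated 10 min at room temperature with compound ([…]) and 62.5 nM biotinylated poly(glu,tyr) in 62.5 mM Mops pH 7.0, 12.5 mM MgCl2, 12.5% glycerol, 6.25% DMSO (pre-incubation concentrations); ATP added from 5 mM stock, 30 min reaction, EDTA stop. Phosphorylation read by DELFIA europium anti-phosphotyrosine fluorescence (340/615).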

IC50, > 10 µM:
N#Cc1ccc(-c2ccc3nc(NCc4ccc(F)c(F)c4)cc(C(=O)N4CCC[C@H]4CN4CCCC4)c3c2)cc1 [Compound 162]
N#Cc1ccc(-c2ccc3nc(NCc4cc(F)ccc4F)cc(C(=O)N4CCC[C@H]4CN4CCCC4)c3c2)cc1 [Compound 163]
N#Cc1ccc(-c2ccc3nc(NCc4ccccc4C(F)(F)F)cc(C(=O)N4CCC[C@H]4CN4CCCC4)c3c2)cc1 [Compound 164]
N#Cc1ccc(-c2ccc3nc(NCc4cccc(Br)c4)cc(C(=O)N4CCC[C@H]4CN4CCCC4)c3c2)cc1 [Compound 165]
N#Cc1ccc(-c2ccc3nc(NCc4ccc(Cl)cc4Cl)cc(C(=O)N4CCC[C@H]4CN4CCCC4)c3c2)cc1 [Compound 166]
N#Cc1ccc(-c2ccc3nc(NCc4cccc(Cl)c4)cc(C(=O)N4CCC[C@H]4CN4CCCC4)c3c2)cc1 [Compound 167]
N#Cc1ccc(-c2ccc3nc(NCc4ccc(Cl)cc4)cc(C(=O)N4CCC[C@H]4CN4CCCC4)c3c2)cc1 [Compound 168]
N#Cc1ccc(-c2ccc3nc(NCc4ccccc4Cl)cc(C(=O)N4CCC[C@H]4CN4CCCC4)c3c2)cc1 [Compound 169]
N#Cc1ccc(-c2ccc3nc(NCCc4ccccc4)cc(C(=O)N4CCC[C@H]4CN4CCCC4)c3c2)cc1 [Compound 170]
CC[C@H](Nc1cc(C(=O)N2CCC[C@H]2CN2CCCC2)c2cc(-c3ccc(C#N)cc3)ccc2n1)c1ccccc1 [Compound 171]
Cc1ccccc1CNc1cc(C(=O)N2CCC[C@H]2CN2CCCC2)c2cc(-c3ccc(C#N)cc3)ccc2n1 [Compound 172]
Cc1ccc(CCNc2cc(C(=O)N3CCC[C@H]3CN3CCCC3)c3cc(-c4ccc(C#N)cc4)ccc3n2)cc1 [Compound 173]
N#Cc1ccc(-c2ccc3nc(NCCc4ccc(Cl)cc4)cc(C(=O)N4CCC[C@H]4CN4CCCC4)c3c2)cc1 [Compound 174]
CN(CCc1ccccc1)c1cc(C(=O)N2CCC[C@H]2CN2CCCC2)c2cc(-c3ccc(C#N)cc3)ccc2n1 [Compound 175]
C[C@H](Nc1cc(C(=O)N2CCC[C@H]2CN2CCCC2)c2cc(-c3ccc(C#N)cc3)ccc2n1)c1ccccc1 [Compound 176]
COc1ccc(CCNc2cc(C(=O)N3CCC[C@H]3CN3CCCC3)c3cc(-c4ccc(C#N)cc4)ccc3n2)cc1 [Compound 177]
Cc1ccc(CNc2cc(C(=O)N3CCC[C@H]3CN3CCCC3)c3cc(-c4ccc(C#N)cc4)ccc3n2)cc1 [Compound 178]
N#Cc1ccc(-c2ccc3nc(NCc4ccc(F)c(Cl)c4)cc(C(=O)N4CCC[C@H]4CN4CCCC4)c3c2)cc1 [Compound 179]
N#Cc1ccc(-c2ccc3nc(NCc4ccc(Cl)cc4F)cc(C(=O)N4CCC[C@H]4CN4CCCC4)c3c2)cc1 [Compound 180]
N#Cc1ccc(-c2ccc3nc(NCc4ccccc4Br)cc(C(=O)N4CCC[C@H]4CN4CCCC4)c3c2)cc1 [Compound 181]
N#Cc1ccc(-c2ccc3nc(N[C@@H]4CCc5ccccc54)cc(C(=O)N4CCC[C@H]4CN4CCCC4)c3c2)cc1 [Compound 182]
N#Cc1ccc(-c2ccc3nc(N[C@H]4CCc5ccccc54)cc(C(=O)N4CCC[C@H]4CN4CCCC4)c3c2)cc1 [Compound 183]
CC[C@@H](Nc1cc(C(=O)N2CCC[C@H]2CN2CCCC2)c2cc(-c3ccc(C#N)cc3)ccc2n1)c1ccccc1 [Compound 184]
COC[C@H](Cc1ccccc1)Nc1cc(C(=O)N2CCC[C@H]2CN2CCCC2)c2cc(-c3ccc(C#N)cc3)ccc2n1 [Compound 185]
C[C@@H](CNc1cc(C(=O)N2CCC[C@H]2CN2CCCC2)c2cc(-c3ccc(C#N)cc3)ccc2n1)c1ccccc1 [Compound 186]
C[C@H](CNc1cc(C(=O)N2CCC[C@H]2CN2CCCC2)c2cc(-c3ccc(C#N)cc3)ccc2n1)c1ccccc1 [Compound 187]
N#Cc1ccc(-c2ccc3nc(NCc4cc(F)cc(F)c4)cc(C(=O)N4CCC[C@H]4CN4CCCC4)c3c2)cc1 [Compound 188]
N#Cc1ccc(-c2ccc3nc(NCc4cc(Cl)cc(Cl)c4)cc(C(=O)N4CCC[C@H]4CN4CCCC4)c3c2)cc1 [Compound 189]
N#Cc1ccc(-c2ccc3nc(NCc4cccc(OC(F)(F)F)c4)cc(C(=O)N4CCC[C@H]4CN4CCCC4)c3c2)cc1 [Compound 190]
N#Cc1ccc(-c2ccc3nc(NCCc4ccccc4F)cc(C(=O)N4CCC[C@H]4CN4CCCC4)c3c2)cc1 [Compound 191]
N#Cc1ccc(-c2ccc3nc(NCCc4ccc(F)cc4)cc(C(=O)N4CCC[C@H]4CN4CCCC4)c3c2)cc1 [Compound 192]
N#Cc1ccc(-c2ccc3nc(NCCc4ccc(Cl)cc4Cl)cc(C(=O)N4CCC[C@H]4CN4CCCC4)c3c2)cc1 [Compound 193]
N#Cc1ccc(-c2ccc3nc(NCCc4cccc(F)c4)cc(C(=O)N4CCC[C@H]4CN4CCCC4)c3c2)cc1 [Compound 194]
N#Cc1ccc(-c2ccc3nc(NCc4cc(F)cc(C(F)(F)F)c4)cc(C(=O)N4CCC[C@H]4CN4CCCC4)c3c2)cc1 [Compound 195]
N#Cc1ccc(-c2ccc3nc(NCCc4cccc(Cl)c4)cc(C(=O)N4CCC[C@H]4CN4CCCC4)c3c2)cc1 [Compound 196]
COc1cccc(CCNc2cc(C(=O)N3CCC[C@H]3CN3CCCC3)c3cc(-c4ccc(C#N)cc4)ccc3n2)c1 [Compound 197]
N#Cc1ccc(-c2ccc3nc(NCc4ccc(F)cc4F)cc(C(=O)N4CCC[C@H]4CN4CCCC4)c3c2)cc1 [Compound 198]
C[C@@H](c1ccccc1)N(C)c1cc(C(=O)N2CCC[C@H]2CN2CCCC2)c2cc(-c3ccc(C#N)cc3)ccc2n1 [Compound 199]
C[C@H](c1ccccc1)N(C)c1cc(C(=O)N2CCC[C@H]2CN2CCCC2)c2cc(-c3ccc(C#N)cc3)ccc2n1 [Compound 200]
C[C@@H](Nc1cc(C(=O)N2CCC[C@H]2CN2CCCC2)c2cc(-c3ccc(C#N)cc3)ccc2n1)c1ccccc1 [Compound 201]
COc1ccc([C@@H](C)Nc2cc(C(=O)N3CCC[C@H]3CN3CCCC3)c3cc(-c4ccc(C#N)cc4)ccc3n2)cc1 [Compound 202]
COc1cccc([C@@H](C)Nc2cc(C(=O)N3CCC[C@H]3CN3CCCC3)c3cc(-c4ccc(C#N)cc4)ccc3n2)c1 [Compound 203]
COc1cccc([C@H](C)Nc2cc(C(=O)N3CCC[C@H]3CN3CCCC3)c3cc(-c4ccc(C#N)cc4)ccc3n2)c1 [Compound 204]
N#Cc1ccc(-c2ccc3nc(N[C@@H]4CCCc5ccccc54)cc(C(=O)N4CCC[C@H]4CN4CCCC4)c3c2)cc1 [Compound 205]
N#Cc1ccc(-c2ccc3nc(N[C@H]4CCCc5ccccc54)cc(C(=O)N4CCC[C@H]4CN4CCCC4)c3c2)cc1 [Compound 206]
C[C@@H](Nc1cc(C(=O)N2CCC[C@H]2CN2CCCC2)c2cc(-c3ccc(C#N)cc3)ccc2n1)c1ccc2ccccc2c1 [Compound 207]
CC(Nc1cc(C(=O)N2CCC[C@H]2CN2CCCC2)c2cc(-c3ccc(C#N)cc3)ccc2n1)c1ccc2ccccc2c1 (some centres unmarked) [Compound 208]
